Assay results reported in the NIST ThermoML archive (doi:10.1021/acs.jced.8b00438).

Experiment: xn = mol fraction of the nth substance listed
Settings: 100 kPa, Liquid; for viscosity: Falling or rolling sphere viscometry; for mass density: Vibrating tube method

CCCCCCCCCCCC [dodecane] + CCCCO
Settings | mass density [kg/m3] | viscosity [mPa·s]
293.15 K, x1 = 0.1045 | 794.67 | 2.478
293.15 K, x1 = 0.2008 | 784.43 | 2.167
293.15 K, x1 = 0.3002 | 776.26 | 1.935
293.15 K, x1 = 0.3985 | 769.8 | 1.772
293.15 K, x1 = 0.4995 | 764.28 | 1.64
293.15 K, x1 = 0.5978 | 759.94 | 1.561
293.15 K, x1 = 0.7012 | 755.99 | 1.494
293.15 K, x1 = 0.7671 | 754.1 | 1.476
293.15 K, x1 = 0.8773 | 751.22 | 1.458
293.15 K, x1 = 1 | 748.83 | 1.491
298.15 K, x1 = 0.1045 | 790.86 | 2.183
298.15 K, x1 = 0.2008 | 780.62 | 1.919
298.15 K, x1 = 0.3002 | 772.45 | 1.722
298.15 K, x1 = 0.3985 | 765.97 | 1.588
298.15 K, x1 = 0.4995 | 760.49 | 1.477
298.15 K, x1 = 0.5978 | 756.17 | 1.414
298.15 K, x1 = 0.7012 | 752.24 | 1.359
298.15 K, x1 = 0.7671 | 750.38 | 1.345
298.15 K, x1 = 0.8773 | 747.52 | 1.331
298.15 K, x1 = 1 | 745.22 | 1.366
303.15 K, x1 = 0.1045 | 787.01 | 1.934
303.15 K, x1 = 0.2008 | 776.76 | 1.709
303.15 K, x1 = 0.3002 | 768.59 | 1.543
303.15 K, x1 = 0.3985 | 762.12 | 1.43
303.15 K, x1 = 0.4995 | 756.67 | 1.338
303.15 K, x1 = 0.5978 | 752.37 | 1.287
303.15 K, x1 = 0.7012 | 748.47 | 1.242
303.15 K, x1 = 0.7671 | 746.62 | 1.231
303.15 K, x1 = 0.8773 | 743.81 | 1.22
303.15 K, x1 = 1 | 741.59 | 1.257
308.15 K, x1 = 0.1045 | 783.13 | 1.721
308.15 K, x1 = 0.2008 | 772.86 | 1.529
308.15 K, x1 = 0.3002 | 764.7 | 1.388
308.15 K, x1 = 0.3985 | 758.24 | 1.295
308.15 K, x1 = 0.4995 | 752.82 | 1.218
308.15 K, x1 = 0.5978 | 748.54 | 1.177
308.15 K, x1 = 0.7012 | 744.67 | 1.141
308.15 K, x1 = 0.7671 | 742.85 | 1.132
308.15 K, x1 = 0.8773 | 740.07 | 1.124
308.15 K, x1 = 1 | 737.95 | 1.154
313.15 K, x1 = 0.1045 | 779.2 | 1.537
313.15 K, x1 = 0.2008 | 768.93 | 1.373
313.15 K, x1 = 0.3002 | 760.78 | 1.254
313.15 K, x1 = 0.3985 | 754.33 | 1.177
313.15 K, x1 = 0.4995 | 748.93 | 1.114
313.15 K, x1 = 0.5978 | 744.69 | 1.082
313.15 K, x1 = 0.7012 | 740.88 | 1.051
313.15 K, x1 = 0.7671 | 739.06 | 1.045
313.15 K, x1 = 0.8773 | 736.32 | 1.04
313.15 K, x1 = 1 | 734.31 | 1.076
318.15 K, x1 = 0.1045 | 775.23 | 1.379
318.15 K, x1 = 0.2008 | 764.95 | 1.239
318.15 K, x1 = 0.3002 | 756.81 | 1.138
318.15 K, x1 = 0.3985 | 750.39 | 1.075
318.15 K, x1 = 0.4995 | 745.02 | 1.022
318.15 K, x1 = 0.5978 | 740.81 | 0.997
318.15 K, x1 = 0.7012 | 737.02 | 0.972
318.15 K, x1 = 0.7671 | 735.24 | 0.968
318.15 K, x1 = 0.8773 | 732.55 | 0.964
318.15 K, x1 = 1 | 730.66 | 1.003
323.15 K, x1 = 0.1045 | 771.21 | 1.241
323.15 K, x1 = 0.2008 | 760.93 | 1.122
323.15 K, x1 = 0.3002 | 752.8 | 1.038
323.15 K, x1 = 0.3985 | 746.41 | 0.985
323.15 K, x1 = 0.4995 | 741.07 | 0.942
323.15 K, x1 = 0.5978 | 736.9 | 0.923
323.15 K, x1 = 0.7012 | 733.15 | 0.902
323.15 K, x1 = 0.7671 | 731.4 | 0.9
323.15 K, x1 = 0.8773 | 728.77 | 0.899
323.15 K, x1 = 1 | 727 | 0.936
328.15 K, x1 = 0.1045 | 767.14 | 1.121
328.15 K, x1 = 0.2008 | 756.86 | 1.02
328.15 K, x1 = 0.3002 | 748.75 | 0.949
328.15 K, x1 = 0.3985 | 742.38 | 0.906
328.15 K, x1 = 0.4995 | 737.08 | 0.871
328.15 K, x1 = 0.5978 | 732.96 | 0.856
328.15 K, x1 = 0.7012 | 729.25 | 0.84
328.15 K, x1 = 0.7671 | 727.53 | 0.839
328.15 K, x1 = 0.8773 | 724.96 | 0.839
328.15 K, x1 = 1 | 723.33 | 0.877
333.15 K, x1 = 0.1045 | 763.01 | 1.017
333.15 K, x1 = 0.2008 | 752.73 | 0.931
333.15 K, x1 = 0.3002 | 744.64 | 0.871
333.15 K, x1 = 0.3985 | 738.31 | 0.837
333.15 K, x1 = 0.4995 | 733.06 | 0.808
333.15 K, x1 = 0.5978 | 728.98 | 0.797
333.15 K, x1 = 0.7012 | 725.32 | 0.784
333.15 K, x1 = 0.7671 | 723.64 | 0.785
333.15 K, x1 = 0.8773 | 721.13 | 0.785
333.15 K, x1 = 1 | 719.65 | 0.823
